17 molecules from US12534474B2, “Dihydrofuropyridine derivatives as rho-kinase inhibitors” (CHIESI FARMACEUTICI S.P.A., priority 2020, dated 2026) can be followed below.

Holding throughout (assay type): biochemical
For experiment [1], the target named is T1, ROCK1 (Homo sapiens, UniProt Q13464). Nature of the experiment: In vitro Rho kinase inhibitory activity assay, ADP-Glo, Method A (ATP 10 μM). Particulars: read-out: Method A ROCK 1 (Ki). The protocol: (§1) In Vitro Inhibitory Activity Assay Description (Method A)
T1 sequence (Q13464 whole entry): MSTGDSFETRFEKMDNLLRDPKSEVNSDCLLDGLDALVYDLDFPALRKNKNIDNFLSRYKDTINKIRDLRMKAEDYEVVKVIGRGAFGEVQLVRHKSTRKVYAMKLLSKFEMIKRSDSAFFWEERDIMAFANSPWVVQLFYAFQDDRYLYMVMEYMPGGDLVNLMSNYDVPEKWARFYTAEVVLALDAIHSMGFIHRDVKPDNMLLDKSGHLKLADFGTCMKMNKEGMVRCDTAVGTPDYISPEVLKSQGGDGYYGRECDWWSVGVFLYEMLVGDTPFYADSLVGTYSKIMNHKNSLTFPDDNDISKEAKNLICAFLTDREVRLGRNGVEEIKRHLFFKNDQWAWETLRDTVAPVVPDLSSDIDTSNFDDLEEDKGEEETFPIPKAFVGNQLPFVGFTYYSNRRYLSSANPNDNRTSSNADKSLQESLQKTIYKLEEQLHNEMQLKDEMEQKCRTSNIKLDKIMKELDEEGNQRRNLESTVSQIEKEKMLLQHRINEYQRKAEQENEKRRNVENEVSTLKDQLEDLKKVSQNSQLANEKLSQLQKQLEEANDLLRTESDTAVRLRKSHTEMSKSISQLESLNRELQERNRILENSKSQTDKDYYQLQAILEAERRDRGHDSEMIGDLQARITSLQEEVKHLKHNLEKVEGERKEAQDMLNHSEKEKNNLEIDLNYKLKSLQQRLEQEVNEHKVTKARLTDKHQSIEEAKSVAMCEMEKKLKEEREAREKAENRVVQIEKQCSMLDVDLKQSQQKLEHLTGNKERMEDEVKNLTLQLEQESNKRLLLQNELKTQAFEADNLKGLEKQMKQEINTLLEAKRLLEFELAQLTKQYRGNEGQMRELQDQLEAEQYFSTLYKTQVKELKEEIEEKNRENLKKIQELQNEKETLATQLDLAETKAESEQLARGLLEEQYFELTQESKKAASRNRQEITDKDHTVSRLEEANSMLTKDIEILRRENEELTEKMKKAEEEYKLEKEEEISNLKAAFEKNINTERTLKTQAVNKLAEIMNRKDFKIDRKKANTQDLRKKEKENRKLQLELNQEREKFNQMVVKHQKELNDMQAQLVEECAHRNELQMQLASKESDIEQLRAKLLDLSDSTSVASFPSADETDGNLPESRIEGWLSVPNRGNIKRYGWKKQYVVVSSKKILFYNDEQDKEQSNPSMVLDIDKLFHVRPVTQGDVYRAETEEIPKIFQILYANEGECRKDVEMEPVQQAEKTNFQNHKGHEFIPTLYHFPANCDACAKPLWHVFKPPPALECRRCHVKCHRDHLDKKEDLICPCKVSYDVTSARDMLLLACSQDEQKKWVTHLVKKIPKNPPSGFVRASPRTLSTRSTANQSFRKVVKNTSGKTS
(§2) The effectiveness of compounds of the present invention to inhibit Rho kinase activity can be determined in a 10 μL assay containing 40 mM Tris pH7.5, 20 mM MgCl2 0.1 mg/mL BSA, 50 μM DTT and 2.5 μM peptide substrate (Myelin Basic Protein) using an ADP-Glo kit (Promega). Compounds were dissolved in DMSO such that the final concentration of DMSO was 1% in the assay. All reactions/incubations are performed at 25° C. Compound (2 μL) and either Rho kinase 1 or 2 (4 μL) were mixed and incubated for 30 min. Reactions were initiated by addition of ATP (4 μL) such that the final concentration of ATP in the assay was 10 μM. After a 1 hour incubation 10 μL of ADP-Glo Reagent was added and after a further 45 minute incubation 20 μL of Kinase Detection Buffer was added and the mixture incubated for a further 30 minutes. The luminescent signal was measured on a luminometer. […] Compounds were tested in dose-response format and the inhibition of kinase activity was calculated at each concentration of compound. To determine the IC50 (concentration of compound required to inhibit 50% of the enzyme activity) data were fit to a plot of % inhibition vs Log10 compound concentration using a sigmoidal fit with a variable slope and fixing the maximum to 100% and the minimum to 0%. To determine the Ki values the Cheng-Prusoff equation was utilized (Ki=IC50/(1+[S]/Km).
(In general: ADP-Glo turns the ADP formed in a reaction into a luminescent signal.)

In experiment [2] the target is T2, ROCK2 (Homo sapiens, UniProt O75116). The experiment is described as above. To be noted: read-out: Method A ROCK 2 (Ki). The protocol: as §1, §2
T2 sequence (O75116 whole entry): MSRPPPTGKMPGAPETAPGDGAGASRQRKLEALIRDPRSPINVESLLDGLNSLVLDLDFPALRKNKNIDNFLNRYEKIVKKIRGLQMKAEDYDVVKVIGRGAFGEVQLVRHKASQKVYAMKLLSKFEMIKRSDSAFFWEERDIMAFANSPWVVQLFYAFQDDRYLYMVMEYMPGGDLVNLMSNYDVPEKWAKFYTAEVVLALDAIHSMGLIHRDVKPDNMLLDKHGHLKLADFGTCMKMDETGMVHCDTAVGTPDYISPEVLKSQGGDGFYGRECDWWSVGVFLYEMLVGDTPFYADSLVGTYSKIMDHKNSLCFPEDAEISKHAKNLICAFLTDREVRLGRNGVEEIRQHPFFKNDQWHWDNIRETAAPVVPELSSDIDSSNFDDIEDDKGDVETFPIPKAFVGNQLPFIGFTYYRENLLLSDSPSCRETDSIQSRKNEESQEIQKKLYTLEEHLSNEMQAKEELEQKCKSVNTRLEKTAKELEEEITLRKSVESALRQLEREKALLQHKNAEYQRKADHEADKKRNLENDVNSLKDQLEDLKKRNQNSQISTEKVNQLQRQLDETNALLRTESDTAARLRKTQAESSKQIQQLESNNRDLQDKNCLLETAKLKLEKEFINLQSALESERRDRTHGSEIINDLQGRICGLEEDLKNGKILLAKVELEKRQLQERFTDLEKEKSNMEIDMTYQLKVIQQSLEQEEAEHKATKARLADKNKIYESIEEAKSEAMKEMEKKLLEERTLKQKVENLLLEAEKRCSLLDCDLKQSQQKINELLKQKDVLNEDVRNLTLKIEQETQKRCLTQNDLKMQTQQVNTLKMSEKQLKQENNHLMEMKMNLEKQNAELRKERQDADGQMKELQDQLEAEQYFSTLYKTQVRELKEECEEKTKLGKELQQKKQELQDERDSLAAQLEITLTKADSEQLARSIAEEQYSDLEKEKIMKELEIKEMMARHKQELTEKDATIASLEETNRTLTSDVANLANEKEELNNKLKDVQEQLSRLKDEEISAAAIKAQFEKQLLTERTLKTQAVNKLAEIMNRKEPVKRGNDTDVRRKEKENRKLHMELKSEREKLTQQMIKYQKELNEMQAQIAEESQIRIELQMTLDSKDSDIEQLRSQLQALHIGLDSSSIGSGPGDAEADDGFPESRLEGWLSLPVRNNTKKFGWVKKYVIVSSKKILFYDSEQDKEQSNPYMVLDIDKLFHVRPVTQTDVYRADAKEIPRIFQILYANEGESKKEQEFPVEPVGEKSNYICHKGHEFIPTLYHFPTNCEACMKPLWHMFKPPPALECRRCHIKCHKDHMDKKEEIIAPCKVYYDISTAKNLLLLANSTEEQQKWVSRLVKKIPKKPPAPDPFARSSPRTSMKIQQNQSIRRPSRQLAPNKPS
Experiment [3] has as its target T1, ROCK1. Briefly: In vitro Rho kinase inhibitory activity assay, ADP-Glo, Method B (ATP 200 μM). To be noted: read-out: Method B ROCK 1 (Ki). The protocol: (§3) In Vitro Inhibitory Activity Assay Description (Method B)
as §2, with “(2 ul)” for “(2 μL)”, “was 200” for “was 10”, “20 ul” for “20 μL”, “vs Log 10” for “vs Log10”

The target of experiment [4] is T2, ROCK2. The experiment is described as above. To be noted: read-out: Method B ROCK 2 (Ki). The protocol:
as §3
as §2, with “(2 ul)” for “(2 μL)”, “was 200” for “was 10”, “20 ul” for “20 μL”, “vs Log 10” for “vs Log10”

The next experiment deals with PKA (Homo sapiens, UniProt P17612). Briefly: In vitro inhibitory activity assay for PKA, ADP-Glo, reported as selectivity ratio vs ROCK2. To be noted: Ki for PKA divided by Ki of ROCK2 (Method B). The protocol:
In Vitro Inhibitory Activity Assay Description for PKA
The effectiveness of compounds of the present invention to inhibit PKA activity can be determined in a 10 μL assay containing 40 mM Tris pH7.5, 20 mM MgCl2 0.1 mg/mL BSA, 50 μM DTT and 260 μM peptide substrate (kemptide) using an ADP-Glo kit (Promega). Compounds were dissolved in DMSO such that the final concentration of DMSO was 1% in the assay. All reactions/incubations are performed at 25° C. Compound and PKA enzyme (6 μL) were mixed and incubated for 30 min. Reactions were initiated by addition of ATP (4 μL) such that the final concentration of ATP in the assay was 10 μM. After a 30 minute incubation 10 μL of ADP-Glo Reagent was added and after a further 1 hour incubation 20 μL of Kinase Detection Buffer was added and the mixture incubated for a further 45 minutes. The luminescent signal was measured on a luminometer. […] Compounds were tested in dose-response format and the inhibition of kinase activity was calculated at each concentration of compound. To determine the IC50 (concentration of compound required to inhibit 50% of the enzyme activity) data were fit to a plot of % inhibition vs Log10 compound concentration using a sigmoidal fit with a variable slope and fixing the maximum to 100% and the minimum to 0%. To determine the Ki values the Cheng-Prusoff equation was utilized (Ki=IC50/(1+[S]/Km).
In vitro inhibitory activities for PKA were reported as selectivity ratio vs. ROCK2. Selectivity ratio PKA/ROCK2 was calculated by dividing the Ki value for PKA by Ki value of ROCK2 (Method B) and reported into table 1.

By Ki is commonly meant a measure of affinity in units of concentration, obtained from inhibition or displacement. Turning to `O=C(N[C@H](CO)c1ccccc1)c1cccc(CNc2ncc(-c3ccncc3)c3c2CCO3)c1` [Example 24, (S)-N-(2-hydroxy-1-phenylethyl)-3-(((7-(pyridin-4-yl)-2,3-dihydrofuro[3,2-c]pyridin-4-yl)amino)methyl)benzamide], the Ki at ROCK1 [1] and on ROCK2 [2] was no more than 3 nM throughout.
On to `Cc1cnccc1-c1cnc(NCc2cccc(C(=O)Nc3nc4c(s3)CN(C)CC4)c2)c2c1OCC2` [Example 48, N-(5-methyl-4,5,6,7-tetrahydrothiazolo[5,4-c]pyridin-2-yl)-3-(((7-(3-methylpyridin-4-yl)-2,3-dihydrofuro[3,2-c]pyridin-4-yl)amino)methyl)benzamide], for which the Ki at ROCK1 [1] and on ROCK2 [2] was no more than 3 nM in each case.
Regarding `CN1CCc2nc(C(=O)Nc3cccc(CNc4ncc(-c5ccncc5)c5c4CCO5)c3)sc2C1` [Example 34, 5-methyl-N-(3-(((7-(pyridin-4-yl)-2,3-dihydrofuro[3,2-c]pyridin-4-yl)amino)methyl)phenyl)-4,5,6,7-tetrahydrothiazolo[5,4-c]pyridine-2-carboxamide], the Ki at ROCK1 [1] and on ROCK2 [2] was no more than 3 nM each time.
Regarding `CN(C)Cc1nc(C(=O)Nc2cccc(CNc3ncc(-c4ccncc4)c4c3CCO4)c2)cs1` [Example 53, 2-((dimethylamino)methyl)-N-(3-(((7-(pyridin-4-yl)-2,3-dihydrofuro[3,2-c]pyridin-4-yl)amino)methyl)phenyl)thiazole-4-carboxamide], the Ki at ROCK1 [1] and at ROCK2 [2] was 3 to 30 nM throughout.
With `CN(C)Cc1cccc(NC(=O)c2cccc(CNc3ncc(-c4ccncc4)c4c3CCO4)c2)c1` [Example 26, N-(3-((dimethylamino)methyl)phenyl)-3-(((7-(pyridin-4-yl)-2,3-dihydrofuro[3,2-c]pyridin-4-yl)amino)methyl)benzamide], the Ki at ROCK1 [1] and at ROCK2 [2] was no more than 3 nM each time.
Consider `CN1CCc2nc(NC(=O)c3cccc(CNc4ncc(-c5ccnc(N)c5)c5c4CCO5)c3)sc2C1` [Example 49, 3-(((7-(2-aminopyridin-4-yl)-2,3-dihydrofuro[3,2-c]pyridin-4-yl)amino)methyl)-N-(5-methyl-4,5,6,7-tetrahydrothiazolo[5,4-c]pyridin-2-yl)benzamide], for which the Ki at ROCK1 [1] and on ROCK2 [2] was no more than 3 nM each time.
As to `CN(C)Cc1cccc(CNC(=O)c2cccc(CNc3ncc(-c4ccncc4)c4c3CCO4)c2)c1` [Example 27, N-(3-((dimethylamino)methyl)benzyl)-3-(((7-(pyridin-4-yl)-2,3-dihydrofuro[3,2-c]pyridin-4-yl)amino)methyl)benzamide], the Ki on ROCK1 [1] and at ROCK2 [2] was no more than 3 nM each time.
`O=C(Nc1cccc(CNc2ncc(-c3ccncc3)c3c2CCO3)c1)c1cccc(CN2CCOCC2)c1` [Example 33, 3-(morpholinomethyl)-N-(3-(((7-(pyridin-4-yl)-2,3-dihydrofuro[3,2-c]pyridin-4-yl)amino)methyl)phenyl)benzamide]: the Ki on ROCK1 [1] and on ROCK2 [2] was 3 to 30 nM in each case.
On to `O=C(Nc1cccc(CNc2ncc(-c3ccncc3)c3c2CCO3)c1)c1ccc2c(c1)CCNC2` [Example 40, N-(3-(((7-(pyridin-4-yl)-2,3-dihydrofuro[3,2-c]pyridin-4-yl)amino)methyl)phenyl)-1,2,3,4-tetrahydroisoquinoline-6-carboxamide], for which the Ki on ROCK1 [1] and on ROCK2 [2] was no more than 3 nM each time.
Regarding `CC(=O)Nc1cccc(CNc2ncc(-c3ccncc3)c3c2CC(C)O3)c1` (centres unmarked) [Example 55, N-(3-(((2-methyl-7-(pyridin-4-yl)-2,3-dihydrofuro[3,2-c]pyridin-4-yl)amino)methyl)phenyl)acetamide], the Ki on ROCK1 [1] and on ROCK2 [2] was 3 to 30 nM throughout.
For the molecule `Cn1ncc2cc(C(=O)Nc3cccc(CNc4ncc(-c5ccncc5)c5c4CCO5)c3)ccc21` [Example 37, 1-methyl-N-(3-(((7-(pyridin-4-yl)-2,3-dihydrofuro[3,2-c]pyridin-4-yl)amino)methyl)phenyl)-1H-indazole-5-carboxamide], the Ki at ROCK1 [1] and on ROCK2 [2] was no more than 3 nM throughout.
As for `CN1CCc2nc(NC(=O)c3cccc(CNc4ncc(-c5ccncc5)c5c4CCO5)n3)sc2C1` [Example 52, N-(5-methyl-4,5,6,7-tetrahydrothiazolo[5,4-c]pyridin-2-yl)-6-(((7-(pyridin-4-yl)-2,3-dihydrofuro[3,2-c]pyridin-4-yl)amino)methyl)picolinamide], the Ki on ROCK1 [1] is 3 to 30 nM; on ROCK2 [2] it was no more than 3 nM.
For `Cc1cc(-c2cnc(NCc3cccc(C(=O)Nc4nc5c(s4)CN(C)CC5)c3)c3c2OCC3)ccn1` [Example 47, N-(5-Methyl-4,5,6,7-tetrahydrothiazolo[5,4-c]pyridin-2-yl)-3-(((7-(2-methylpyridin-4-yl)-2,3-dihydrofuro[3,2-c]pyridin-4-yl)amino)methyl)benzamide], in that order: 3 to 30 nM and 3 to 30 nM.
On the same counts, the results for `CN1CCc2nc(NC(=O)c3cccc(CNc4ncc(-c5ccnc(F)c5)c5c4CCO5)c3)sc2C1` [Example 50, 3-(((7-(2-fluoropyridin-4-yl)-2,3-dihydrofuro[3,2-c]pyridin-4-yl)amino)methyl)-N-(5-methyl-4,5,6,7-tetrahydrothiazolo[5,4-c]pyridin-2-yl)benzamide] are no more than 3 nM and no more than 3 nM.
On the same counts, the results for `O=C(NCCc1cccnc1)c1cccc(CNc2ncc(-c3ccncc3)c3c2CCO3)c1` [Example 29, N-(2-(pyridin-3-yl)ethyl)-3-(((7-(pyridin-4-yl)-2,3-dihydrofuro[3,2-c]pyridin-4-yl)amino)methyl)benzamide] are no more than 3 nM and no more than 3 nM.
Take `O=C(Nc1cccc(CNc2ncc(-c3ccncc3)c3c2CCO3)c1)c1nc2c(s1)CN(C1COC1)CC2` [Example 38, 5-(oxetan-3-yl)-N-(3-(((7-(pyridin-4-yl)-2,3-dihydrofuro[3,2-c]pyridin-4-yl)amino)methyl)phenyl)-4,5,6,7-tetrahydrothiazolo[5,4-c]pyridine-2-carboxamide]: the Ki at ROCK1 [1] and at ROCK2 [2] was no more than 3 nM in each case.
For `CNC(=O)c1cccc(CNc2ncc(-c3ccnc(N)c3F)c3c2CCO3)c1` [Example 46, 3-(((7-(2-Amino-3-fluoropyridin-4-yl)-2,3-dihydrofuro[3,2-c]pyridin-4-yl)amino)methyl)-N-methylbenzamide], the Ki on ROCK1 [3] and at ROCK2 [4] was 3 to 30 nM each time. The “Ratio (PKA/ROCK2)” value at PKA is recorded as “*** (ratio≥10)”.
